Test system: genotype 2a HCV replicon with NS5A amino acid substitutions
Assay: Transient replicon assay, genotype 2a NS5A amino acid substitutions
Format: cell-based, Hepatitis C virus
Conditions: for EC50 / EC90: Hepatitis C virus

Structure (SMILES): O=C(N[C@@H](C(=O)N1CCC[C@H]1c1ncc(-c2ccc(-c3ccc(-c4cnc([C@@H]5CCCN5C(=O)[C@H](NC(=O)C5CC5)c5ccccc5)s4)cc3)cc2)s1)c1ccccc1)C1CC1 [DBPR110]
- EC50 (genotype 2a NS5A P58L): 53 nM
- EC90 (genotype 2a NS5A P58L): 89.3 nM
- EC50 (genotype 2a NS5A Parental): 0.25 ± 0.032 nM
- EC90 (genotype 2a NS5A Parental): 0.592 ± 0.07 nM
- EC50 (genotype 2a NS5A T24A): 16.2 nM
- EC90 (genotype 2a NS5A T24A): 63.5 nM
- EC50 (genotype 2a NS5A Y93H): 760 nM
- EC90 (genotype 2a NS5A Y93H): > 5000 nM
- EC50 (genotype 2a NS5A Y93N): 51.8 nM
- EC90 (genotype 2a NS5A Y93N): 85.2 nM
- Fold resistance (EC50) (genotype 2a NS5A P58L): 212 fold
- Fold resistance (EC90) (genotype 2a NS5A P58L): 151 fold
- Fold resistance (EC50) (genotype 2a NS5A Parental): 1 fold
- Fold resistance (EC90) (genotype 2a NS5A Parental): 1 fold
- Fold resistance (EC50) (genotype 2a NS5A T24A): 65 fold
- Fold resistance (EC90) (genotype 2a NS5A T24A): 107 fold
- Fold resistance (EC50) (genotype 2a NS5A Y93H): 3,041 fold
- Fold resistance (EC90) (genotype 2a NS5A Y93H): >8,446 fold
- Fold resistance (EC50) (genotype 2a NS5A Y93N): 207 fold
- Fold resistance (EC90) (genotype 2a NS5A Y93N): 144 fold

From patent US20140127158A1, “COMBINATION THERAPY FOR HEPATITIS C VIRUS INFECTION” (National Health Research Institute, priority 2012, published 2014)
